Drawing on the NIST ThermoML archive (doi:10.1016/j.tca.2013.03.013), this text covers Normal melting temperature for one molecule.

SMILES strings stand for the structures. Numbers after ± are expanded uncertainties.

For this series the following is noted: Crystal.

As for `CC1(C)O[C@@H]2C[C@H]3[C@@H]4C[C@H](F)C5=CC(=O)C=C[C@]5(C)[C@@]4(F)[C@@H](O)C[C@]3(C)[C@]2(C(=O)CO)O1` [fluocinolone acetonide], the Normal melting temperature came to 261.4 ± 0.7 °C (DTA) and 262.00 ± 0.5 °C (visual observation).
